# Assays:
# [1] = tested on: TGF-β1 activation; assay: TGF-β1 activation by prostate adenocarcinoma cells (ELISA); assay type: cell-based, human
# Procedure: (§1) Each measurement was performed in duplicates.
# (§2) It has been shown that cancer cells, such as human breast cancer, some melanoma cell lines and prostate adenocarcinoma cell lines, constitutively release biologically active TGF-β1 into the culture medium (24, 25, 29). Since the homotypic cell culture system would be of advantage due to its simplicity, an attempt was made to implement cancer cells as a method for TGF-β1 activation.
# [2] = tested on: TGF-β1 activation; assay: Macrophage activation assay (IC-21 macrophages, LPS, fetal fibroblast conditioned media, ELISA); assay type: cell-based, mouse
# Procedure: Cultured macrophages were lifted from the dish with 3 ml of PBS. The PBS was balanced with 15 ml of RPMI-1640 containing 10% FBS. The cells were counted and then seeded in 100 mm plates at 1×10^6 cells/dish. When the cultured macrophages reached approximately 70% confluency (2-3 days) they were washed with PBS and RPMI-1640 medium containing 5% FBS and 10 ng/ml LPS was applied (FIG. 1). After 24 h of activation with LPS the cells were washed gently with PBS. At this point conditioned medium from confluent fetal dermal fibroblasts was collected and 5 ml was distributed into each dish containing macrophages. The cells were incubated for an additional 24 h, the media were collected, spun down at 600×g for 10 min and stored at 4° C. before TGF-β1 evaluation by ELISA. Each condition was done in duplicate. The cells, washed with PBS, were harvested for total RNA extraction.
# Fetal dermal fibroblasts were seeded in 100 mm dishes at 1×10^6 cell/dish. The cells were grown to confluency (2-3 days). The cultures were washed with PBS and fresh medium, either DMEM supplemented with 10% FBS or AIM-V medium (a serum free medium) for serum-free conditions, was applied for 24 h (FIG. 1). The medium was collected and combined in order to obtain a homogenous pool of latent TGF-β1. The collection of the medium was done just prior to application in the macrophage assay.
# as §1
# [3] = tested on: TGF-β1 mRNA; assay: mRNA for TGF-β1 in macrophages by Northern blot; assay type: cell-based, mouse; conditions: LPS alone or LPS with M6P or DCA, FIG. 2
# Procedure: (§3) The cells were washed with PBS, followed by addition of the extraction buffer provided with the kit (RNeasy RNA extraction kit). The lysed cells were scraped from the dish and collected in microtubes. Samples were either frozen at −70° C. before analysis or directly assessed following manufacturer protocol. Absorbance at 260 nm and 280 nm was measured and the integrity of RNA was evaluated by denaturing formaldehyde agarose gels stained with ethidium bromide.
# Northern blot analysis was carried out as described previously (27). Briefly, total RNA samples (5 μg) were diluted in formaldehyde-MOPS buffer and subjected to electrophoresis in a denaturing 1.2% Sea Kem GTG agarose gel along with the RNA size markers. RNA was transferred to a nitrocellulose membrane by capillary transfer. The blots were prehybridized for 3 h at 42° C. in a solution containing 10% dextran sulfate, 2×Denhardt's solution, 50% formamide, 5×SSPE (0.75 M Sodium chloride, 0.05 M sodium phosphate, 0.005 M ethylenediaminetetraacetic acid)/0.1% SDS, and 250 μg/ml of sheared salmon testis DNA. Hybridization solution was essentially the same except that ^32P dCTP-labeled DNA probe and 150 μg/ml of salmon testis DNA were included. The hybridization was carried out for 16 h at 42° C. […]
# [4] = tested on: TGF-β1 activation; assay: TGF-β1 activation by Bowes melanoma cells (ELISA); assay type: cell-based, human
# Procedure: as §1, §2
# [5] = tested on: TGF-β1 activation; assay: TGF-β1 activation by HMB-2 melanoma cells (ELISA); assay type: cell-based, human
# Procedure: as §1, §2
# [6] = tested on: tissue Transglutaminase II mRNA; assay: mRNA for TGase II in macrophages by RT-PCR densitometry; assay type: cell-based, mouse; conditions: 1 μM hydrocortisone, densitometry of RT-PCR products, FIG. 3
# Procedure: as §3
# The procedure used to transcribe the total RNA was described in detail previously (28). […]
# A portion of the first strand cDNA reaction was used in PCR, which was carried out in 25 μl containing 16 mM Tris-HCl, pH 8.3, 50 mM KCl, 1.5 mM MgCl2, 0.01% gelatin, 200 μM of each dNTPs, 1 μM each sense and antisense oligonucleotides and 2.5 units of AmpliTaq DNA polymerase. […] Sizes were determined using Q X 174 DNA/Hae III markers. […] Densitometry was used for quantitative analysis of the ethidium bromide stained gels.
# In an attempt to identify the mechanism of this inhibition, the level of mRNA was evaluated for TGase II in macrophages treated with 1 μM hydrocortisone.
# [7] = tested on: TGF-β1 mRNA; assay: TGF-β1 mRNA in human neonatal fibroblasts by RT-PCR; assay type: cell-based; conditions: 100 and 200 μM
# Procedure: (§4) Human neonatal fibroblasts were seeded in 100 mm dishes at 1×10^6 cells/dish. […] In addition, cells were treated with two concentrations of Mannose 1-Phosphate (M1P) (100 and 200 μM) for 24 and 48 h. […] Each treatment was run in duplicates and repetitive analyses were performed.
# (§5) The procedure used to transcribe the total RNA was described in detail previously (28). Briefly, the reaction was carried out in a total volume of 25 μl containing 1× reverse transcriptase buffer (50 mM Tris-HCl, pH 8.3, 75 mM KCl, 3 mM MgCl2), 10 mM DTT (Dithiothreitol), 2.5 mM each of dNTPs (Deoxynucleotides), 100 μg/ml of acetylated BSA, 4 units of rRNasin (ribonuclease inhibitor), 200 units of SuperScript™ RNase H^−Reverse Transcriptase, 0.1 μg of oligo (dT)12-18 and 1 μg of total RNA. Incubation was carried out for 1 h at 42° C. and was terminated by the addition of an equal volume of cold water.
# (§6) A portion of the first strand cDNA reaction was used in PCR, which was carried out in 25 μl containing 16 mM Tris-HCl, pH 8.3, 50 mM KCl, 1.5 mM MgCl2, 0.01% gelatin, 200 μM of each dNTPs, 1 μM each sense and antisense oligonucleotides and 2.5 units of AmpliTaq DNA polymerase. Amplification was carried out for 35 cycles. Each cycle consisted of: denaturation 1 min at 95° C.; annealing at 55° C. (optimal for the pair of oligonucleotides used) for 2 min; and elongation at 72° C., 3 min. For the final cycle elongation was 7 min. Reaction products were separated by 2% agarose gel electrophoresis and were visualized by ethidium bromide staining. Sizes were determined using Q X 174 DNA/Hae III markers. Restriction digests were performed in order to confirm PCR product specificity. Densitometry was used for quantitative analysis of the ethidium bromide stained gels.
# [8] = tested on: M6P/IGF-II receptor mRNA; assay: M6P/IGF-II receptor mRNA in human neonatal fibroblasts by RT-PCR; assay type: cell-based; conditions: 100 and 200 μM
# Procedure: as §4, §5, §6
# [9] = tested on: TGF-β1 activation; assay: BAEC treated with retinoic acid, TGF-β1 in conditioned media by ELISA; assay type: cell-based, bovine
# Procedure: The procedures for preparation of conditioned media were described previously (22). Briefly, for the retinoid experiment, BAEC cells were grown to confluency in 35 mm dishes. The cultures were rinsed with PBS (Phosphate Buffered Saline), and incubated in 1 ml of serum-free DMEM containing 0.1% of BSA and retinoic acid (10 μM) or vehicle (0.5% ethanol). The incubation was carried out for 24 h. The medium was aspirated, the cells were washed with PBS and then incubated in 1 ml of DMEM/0.1% BSA for an additional 12 h to produce conditioned medium. Conditioned media were centrifuged and used in the ELISA assay for TGF-β1 evaluation.
# Each measurement was performed in duplicates. […]
# [10] = BAEC + RA (10 μM) + test agent 100 μM
compound,measurement,setting,value
"NCCSSCCN [Cystamine, cystamine]",% ACTIVE TGF-β1 (STD),"[1]; Adenocarcinoma cells, M6P 100 μM, cystamine 100 μM, antibody 1:1500 dil",91.1%
same,"active TGF-β1, % Control (STD)",[2]; 50 μM M6P + 100 μM putrescine or cystamine,did not show additive effect
"CN(C)c1cccc2c(S(=O)(=O)NCCCCCN)cccc12 [DCA, monodansylcadaverine]","effect on TGF-β1 activation, in words",[1]; prostate cancer cells,no effect
same,"levels of mRNA for TGF-β1, in words",[3],remained the same
same,% ACTIVE TGF-β1 (STD),"[4]; BOWES, M6P 100 μM, DCA 100 μM, antibody 1:1500 dil",145%
same,"effect on TGF-β1 activation, in words",[4]; melanoma cells (Bowes),no effect
same,% ACTIVE TGF-β1 (STD),"[5]; HMB-2, M6P 100 μM, DCA 100 μM, antibody 1:1500 dil",110.7%
same,"effect on TGF-β1 activation, in words",[5]; melanoma cells (HMB-2),no effect
"C[C@]12CCC(=O)C=C1CC[C@@H]1[C@@H]2[C@@H](O)C[C@@]2(C)[C@H]1CC[C@]2(O)C(=O)CO [Hydrocortisone, hydrocortisone]","level of mRNA for TGase II, reduced to",[6],37.5%
same,"active TGF-β1, % Control (STD)",[2]; 1 μM,64.0 (0.4) %
same,"active TGF-β1, % Control (STD)","[2]; 1 μM, listed as hydrocortisone",64.0%
"O=P(O)(O)O[C@H]1O[C@H](CO)[C@@H](O)[C@H](O)[C@@H]1O [M1P, alpha-D(+)mannose 1-phosphate]","effect on TGF-β1 mRNA level, in words",[7],no effects
same,"effect on M6P/IGF-II receptor mRNA level, in words",[8],no effects
same,"inhibitory effect on TGF-β1 activation, in words","[9]; 100 μM, BAEC treated with RA",no significant inhibitory effects
same,% Active,[9]; [10],7.6%
same,Active TGF-β1,[9]; [10],280 pg/mL
same,Total TGF-β1,[9]; [10],3686 pg/mL

# — US6750028B1, “Anti-fibrotic agent assay” (Ethicon, Inc, priority 1996, dated 2004)
